“And” between values parts separate entries of the source, which are not always exact repeats. Identical values can stand only once. Inconclusive results and toxic doses are left out.

This assay relates to BDF1 mice, B16 melanoma ip, median survival T/C. Put plainly: NCI In Vivo Anticancer Drug Screen. Data for tumor model B16 Melanoma (intraperitoneal) in B6D2F1 (BDF1) mice. To be noted: endpoint: median survival time, higher = longer survival. The procedure, abridged: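 The ratio T/C compares compound-treated mice with vehicle-treated controls, using survival or tumor size as the endpoint in a transplantable tumor model.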

Setting [1] is: dose: 100.0 mg/kg/injection, schedule: Q01DX009 (ip), vehicle: Klucel (hydroxypropylcellulose) (HPC).
Where [2] appears, read: dose: 200.0 mg/kg/injection, schedule: Q01DX009 (ip), vehicle: Klucel (hydroxypropylcellulose) (HPC).
[3] abbreviates: dose: 400.0 mg/kg/injection, schedule: Q01DX009 (ip), vehicle: Klucel (hydroxypropylcellulose) (HPC).
Where [4] appears, read: dose: 12.5 mg/kg/injection, schedule: Q01DX009 (ip), vehicle: saline with Tween-80.
The mark [5] stands for this setting: dose: 25.0 mg/kg/injection, schedule: Q01DX009 (ip), vehicle: saline with Tween-80.
The mark [6] stands for this setting: dose: 50.0 mg/kg/injection, schedule: Q01DX009 (ip), vehicle: saline with Tween-80.
The mark [7] stands for this setting: dose: 100.0 mg/kg/injection, schedule: Q01DX009 (ip), vehicle: saline with Tween-80.
The mark [8] stands for this setting: dose: 100.0 mg/kg/injection, schedule: Q04DX003 (ip), vehicle: Klucel (hydroxypropylcellulose) (HPC).
Where [9] appears, read: dose: 200.0 mg/kg/injection, schedule: Q04DX003 (ip), vehicle: Klucel (hydroxypropylcellulose) (HPC).
The mark [10] stands for this setting: dose: 200.0 mg/kg/injection, schedule: Q01DX009 (ip), vehicle: saline with Tween-80.
[11] abbreviates: dose: 6.25 mg/kg/injection, schedule: Q01DX009 (ip), vehicle: saline.
[12] abbreviates: dose: 12.5 mg/kg/injection, schedule: Q01DX009 (ip), vehicle: saline.
The mark [13] stands for this setting: dose: 3.12 mg/kg/injection, schedule: Q01DX009 (ip), vehicle: Klucel (hydroxypropylcellulose) (HPC).
[14] abbreviates: dose: 6.25 mg/kg/injection, schedule: Q01DX009 (ip), vehicle: Klucel (hydroxypropylcellulose) (HPC).
The mark [15] stands for this setting: dose: 12.5 mg/kg/injection, schedule: Q01DX009 (ip), vehicle: Klucel (hydroxypropylcellulose) (HPC).
The mark [16] stands for this setting: dose: 25.0 mg/kg/injection, schedule: Q01DX009 (ip), vehicle: Klucel (hydroxypropylcellulose) (HPC).

For `CCC[CH2][Hg][O]C(C)=O`, the T/C runs as follows: (dose: 0.63 mg/kg/injection, schedule: Q01DX009 (ip), vehicle: other) 99 % of control; (dose: 1.25 mg/kg/injection, schedule: Q01DX009 (ip), vehicle: other) 89 % of control; (dose: 2.5 mg/kg/injection, schedule: Q01DX009 (ip), vehicle: other) 86 % of control.

Consider `O=S(=O)(O)c1ccc(Nc2ccccc2)cc1`, for which the T/C under setting [1] is 107 % of control and 97 % of control; the T/C under setting [2] is 114 % of control and 88 % of control; the T/C under setting [3] is 107 % of control and 100 % of control.

For `O=C(Nc1ccccc1C(F)(F)F)C(c1ccccc1)c1ccccc1`, the T/C by setting is: under setting [4], 101 % of control; under setting [5], 98 % of control; under setting [6], 97 % of control.

For the compound `COc1ccc(NC(=O)Nc2ccc(Br)cc2)cc1`, the T/C is, setting by setting: under setting [5], 98 % of control; under setting [6], 92 % of control; under setting [7], 89 % of control and 95 % of control.

With `CC(=O)Nc1ccc(CCCCc2cccc(C(=N)N)c2)cc1`, the T/C is, setting by setting: (dose: 2.3 mg/kg/injection, schedule: Q04DX003 (ip), vehicle: saline with Tween-80) 86 % of control; (dose: 4.6 mg/kg/injection, schedule: Q04DX003 (ip), vehicle: saline with Tween-80) 86 % of control; (dose: 9.3 mg/kg/injection, schedule: Q04DX003 (ip), vehicle: saline with Tween-80) 95 % of control; under setting [4], 97 % of control; (dose: 18.75 mg/kg/injection, schedule: Q04DX003 (ip), vehicle: saline with Tween-80) 116 % of control; under setting [5], 97 % of control.

For `NCCc1c[nH]c2ccccc12`, the T/C is 120 % of control (dose: 100.0 mg/kg/injection, schedule: Q04DX003 (ip), vehicle: saline) and 112 % of control (dose: 200.0 mg/kg/injection, schedule: Q04DX003 (ip), vehicle: saline).

With `CCCCn1cnc2c(=S)nc[nH]c21`, the T/C runs as follows: (dose: 6.25 mg/kg/injection, schedule: Q01DX009 (ip), vehicle: saline with Tween-80) 93 % of control; under setting [4], 89 % of control; under setting [5], 95 % of control; under setting [6], 97 % of control.

With `O=P(OCC(Br)CBr)(OCC(Br)CBr)OCC(Br)CBr` (stereo not drawn), the T/C reads like this: under setting [8], 100 % of control; under setting [9], 102 % of control; (dose: 400.0 mg/kg/injection, schedule: Q04DX003 (ip), vehicle: Klucel (hydroxypropylcellulose) (HPC)) 101 % of control.

As to `CCCCCCC(=O)CC(C)C`, the T/C runs as follows: under setting [1], 93 % of control; under setting [2], 90 % of control; under setting [3], 86 % of control.

With `CCCCCCCCSC1=C(Cl)C(=O)C(OC)=C(OC)C1=O`, the T/C (dose: 3.13 mg/kg/injection, schedule: Q01DX009 (ip), vehicle: saline with Tween-80) is 88 % of control.

In the case of `CC(=O)NCc1cc(CNC(C)=O)c(C)cc1C`, the T/C runs as follows: under setting [7], 88 % of control; under setting [10], 86 % of control.

Turning to `Cc1cc(=O)[nH]c(Nc2ccccc2)n1`, the T/C was 105 % of control under setting [7]; 92 % of control under setting [10]; 102 % of control (dose: 400.0 mg/kg/injection, schedule: Q01DX009 (ip), vehicle: saline with Tween-80).

As for `CN(C)CCC(=O)c1ccccc1`, the T/C under setting [11] was 105 % of control and the T/C under setting [12] was 105 % of control.

On to `Cc1cc(C)c(COCc2cc(C)c(C)cc2C)cc1C`, for which the T/C by setting is: (dose: 50.0 mg/kg/injection, schedule: Q01DX009 (ip), vehicle: water) 95 % of control; (dose: 100.0 mg/kg/injection, schedule: Q01DX009 (ip), vehicle: water) 95 % of control.

With `CC1(C)C(C#N)C(=O)N=C(N)C1C(N)=O` (stereo not drawn), the T/C was 105 % of control (dose: 12.0 mg/kg/injection, schedule: Q04DX003 (ip), vehicle: Klucel (hydroxypropylcellulose) (HPC)); 107 % of control (dose: 25.0 mg/kg/injection, schedule: Q04DX003 (ip), vehicle: Klucel (hydroxypropylcellulose) (HPC)); 105 % of control (dose: 50.0 mg/kg/injection, schedule: Q04DX003 (ip), vehicle: Klucel (hydroxypropylcellulose) (HPC)); 86 % of control and 100 % of control under setting [8]; 91 % of control under setting [9].

In the case of `CC(N)C(=O)NC(C(=O)O)C(C)O` (stereo not drawn), the T/C runs as follows: (dose: 25.0 mg/kg/injection, schedule: Q01DX009 (ip), vehicle: saline) 92 % of control; (dose: 50.0 mg/kg/injection, schedule: Q01DX009 (ip), vehicle: saline) 100 % of control; (dose: 100.0 mg/kg/injection, schedule: Q01DX009 (ip), vehicle: saline) 97 % of control; (dose: 200.0 mg/kg/injection, schedule: Q01DX009 (ip), vehicle: saline) 102 % of control; (dose: 400.0 mg/kg/injection, schedule: Q01DX009 (ip), vehicle: saline) 105 % of control.

As for `COc1cccc(CC(C)[N+](=O)[O-])c1` (stereo not drawn), the T/C reads like this: (dose: 45.0 mg/kg/injection, schedule: Q01DX009 (ip), vehicle: saline with Tween-80) 109 % of control; (dose: 90.0 mg/kg/injection, schedule: Q01DX009 (ip), vehicle: saline with Tween-80) 100 % of control; (dose: 180.0 mg/kg/injection, schedule: Q01DX009 (ip), vehicle: saline with Tween-80) 86 % of control.

Consider `COc1cc2cc[n+]3c(C)c4cc5c(cc4cc3c2cc1OC)OCO5` (tested in a mixture with another compound), for which the T/C reads like this: under setting [11], 94 % of control; under setting [12], 105 % of control.

For `O=[N+]([O-])c1ccc(Sc2ccncn2)c([N+](=O)[O-])c1`, the T/C by setting is: under setting [4], 100 % of control and 109 % of control; under setting [5], 94 % of control and 101 % of control; under setting [6], 95 % of control and 106 % of control; under setting [7], 108 % of control.

Regarding `COc1ccc(-c2cc(=O)c3c(ccc4ccccc43)o2)cc1`, the T/C runs as follows: under setting [1], 94 % of control; under setting [2], 100 % of control; under setting [3], 102 % of control.

As for `COc1ccc2c(c1OC)C13CCCCC1C(C2)[N+](C)(C)CC3` (stereo not drawn), the T/C by setting is: (dose: 0.02 mg/kg/injection, schedule: Q01DX009 (ip), vehicle: Klucel (hydroxypropylcellulose) (HPC)) 91 % of control; (dose: 0.04 mg/kg/injection, schedule: Q01DX009 (ip), vehicle: Klucel (hydroxypropylcellulose) (HPC)) 89 % of control; (dose: 0.78 mg/kg/injection, schedule: Q01DX009 (ip), vehicle: Klucel (hydroxypropylcellulose) (HPC)) 87 % of control; under setting [13], 86 % of control.

For `CC(C)C[C@H](NC(=O)[C@@H](O)[C@H](N)Cc1ccc(O)cc1)C(=O)O`, the T/C runs as follows: (dose: 0.05 mg/kg/injection, schedule: Q01DX009 (oral), vehicle: saline) 97 % of control; (dose: 0.5 mg/kg/injection, schedule: Q01DX009 (oral), vehicle: saline) 97 % of control; (dose: 5.0 mg/kg/injection, schedule: Q01DX009 (oral), vehicle: saline) 101 % of control.

For `C=C(Cl)C(=NC(C)(C)C)Nc1ccccc1C`, the T/C runs as follows: under setting [13], 99 % of control; under setting [14], 86 % of control; under setting [15], 92 % of control; under setting [16], 102 % of control.

As to `Cc1ccccc1CN1CCN(CCOC(c2ccccc2)c2ccccc2Cl)CC1` (stereo not drawn), the T/C by setting is: under setting [13], 93 % of control and 94 % of control; under setting [14], 93 % of control; under setting [15], 91 % of control and 100 % of control; under setting [16], 86 % of control and 89 % of control; (dose: 50.0 mg/kg/injection, schedule: Q01DX009 (ip), vehicle: Klucel (hydroxypropylcellulose) (HPC)) 86 % of control.

For `Cc1cccc(NC(=O)c2ccccc2)c1C`, the T/C was 99 % of control under setting [5], 99 % of control under setting [6] and 93 % of control under setting [7].

For the compound `O=C(Nc1ccc2c(c1)OCO2)O/N=C1\C(=O)Nc2ccccc21`, the T/C is 100 % of control (dose: 16.5 mg/kg/injection, schedule: Q04DX003 (ip), vehicle: saline with Tween-80); 109 % of control under setting [5]; 100 % of control (dose: 25.0 mg/kg/injection, schedule: Q04DX003 (ip), vehicle: saline with Tween-80); 153 % of control (dose: 25.0 mg/kg/injection, schedule: Q04DX003 (ip), vehicle: saline); 95 % of control (dose: 37.5 mg/kg/injection, schedule: Q04DX003 (ip), vehicle: saline with Tween-80); 104 % of control under setting [6]. Also, the T/C under setting [7] is 100 % of control.

The values are drawn from PubChem BioAssay AID192 (DTP/NCI, 2004).
